The text below walks through data of paper PMC6422167 (ChemMedChem, 2018).

Experiment [1] concerns the target T1, σ1 receptor (Cavia porcellus, UniProt Q60492). The settings on record: read-out: Ki σ1, cited from earlier work.
Experiment [2] concerns the target T2, σ2 receptor (Rattus norvegicus, UniProt Q5U3Y7).
T2 sequence (Q5U3Y7 1-176): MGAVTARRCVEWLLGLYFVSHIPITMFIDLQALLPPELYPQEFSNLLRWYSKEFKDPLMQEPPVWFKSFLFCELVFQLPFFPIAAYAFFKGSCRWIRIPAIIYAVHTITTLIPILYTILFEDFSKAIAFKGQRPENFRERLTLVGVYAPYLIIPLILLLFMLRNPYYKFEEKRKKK
The settings on record: read-out: Ki σ2; reference σ1 ligand; cited from earlier work.

The target of experiment [3] is T1, σ1 receptor. In words: σ1 receptor binding affinity, competition against. Set-up: species or system guinea pig. To be noted: for Selectivity ratio VAChT/ σ1: ratio of Ki values, Table 2; for Ki: read-out: Ki σ1, homogenate of guinea pig brain, tested as oxalate, mean ± SD.
The target in experiment [4] is T2, σ2 receptor. In words: σ2 receptor binding affinity, competition against [3H]DTG. The settings on record: for Selectivity ratio VAChT/ σ2: ratio of Ki values, Table 2; for Ki: read-out: Ki σ2, homogenate of rat liver, tested as oxalate, mean ± SD.
The target of a further experiment is T3, human VAChT (Homo sapiens, UniProt Q16572).
T3 sequence (Q16572 1-532): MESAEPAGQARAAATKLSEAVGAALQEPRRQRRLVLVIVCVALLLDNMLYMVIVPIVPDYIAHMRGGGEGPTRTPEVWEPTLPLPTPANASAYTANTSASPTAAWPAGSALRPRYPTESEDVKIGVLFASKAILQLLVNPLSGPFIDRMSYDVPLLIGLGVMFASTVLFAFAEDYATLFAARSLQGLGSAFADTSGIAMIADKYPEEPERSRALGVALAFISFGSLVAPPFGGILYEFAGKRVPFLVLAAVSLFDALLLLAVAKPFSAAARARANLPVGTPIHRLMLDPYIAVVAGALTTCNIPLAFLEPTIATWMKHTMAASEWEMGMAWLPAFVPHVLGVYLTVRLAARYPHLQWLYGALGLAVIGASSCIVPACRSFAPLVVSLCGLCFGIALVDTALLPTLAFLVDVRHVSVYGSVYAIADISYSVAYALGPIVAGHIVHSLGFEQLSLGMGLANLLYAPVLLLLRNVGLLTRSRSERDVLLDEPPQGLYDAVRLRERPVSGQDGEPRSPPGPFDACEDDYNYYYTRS
To be noted: read-out: Ki VAChT; reference ligand; cited from earlier work.

Like-named read-outs stand apart in the source and are kept apart here.

T1 sequence (Q60492 whole entry): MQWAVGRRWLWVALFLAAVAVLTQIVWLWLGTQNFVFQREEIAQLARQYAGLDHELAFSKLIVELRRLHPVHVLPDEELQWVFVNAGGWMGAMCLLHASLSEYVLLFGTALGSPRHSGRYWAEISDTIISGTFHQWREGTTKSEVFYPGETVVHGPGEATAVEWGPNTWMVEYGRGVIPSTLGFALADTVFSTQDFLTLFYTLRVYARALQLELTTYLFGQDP

On to `O=C(Cc1ccccc1F)NC1CCC(Cc2ccccc2)CC1` (centres unmarked) [YUN-122, N-(4-benzylcyclohexyl)-2-(2-fluorophenyl)acetamide], for which the Ki (commonly the equilibrium dissociation constant of an inhibitor or competing ligand from its target) was 3.6 ± 1.1 nM at σ1 receptor [1] (reference σ1 ligand) and 667 ± 98 nM at σ2 receptor [2].
As for `O=C(c1ccc(SCCCF)cc1)C1CCN(C2Cc3ccccc3CC2O)CC1` (racemic) [(±)-14b, (±)-(4-((3-Fluoropropyl)thio)phenyl)(1-(3-hydroxy-1,2,3,4-tetrahydronaph-thalen-2-yl)piperidin-4-yl)methanone], on σ1 receptor [3], the “Selectivity ratio VAChT/ σ1” value is 17.7 and the Ki was found to be 40.8 ± 4.1 nM. Besides, on σ2 receptor [4], the “Selectivity ratio VAChT/ σ2” value was greater than 430 and the Ki was greater than 1000 nM.
`O[C@@H]1Cc2cccc(OCCF)c2C[C@H]1N1CCC(c2ccccc2)CC1` [(-)-FEOBV]: the results for the Ki on σ1 receptor [1] (reference ligand) and on human VAChT were 209 ± 94 nM and 19.6 ± 1.1 nM, respectively. Further, the “Selectivity ratio VAChT/ σ1” value on σ1 receptor [3] is 10.7.
As for (-)-vesamicol [reference compound], the Ki at σ2 receptor [4] turned out to be 34.5 ± 2 nM.
Consider `O=C(c1ccc(SCCF)cc1)C1CCN(C2Cc3ccccc3CC2O)CC1` (racemic) [(±)-14a, (±)-(4-((2-Fluoroethyl)thio)phenyl)(1-(3-hydroxy-1,2,3,4-tetrahydronaph-thalen-2-yl)piperidin-4-yl)methanone], for which, at σ1 receptor [3], the “Selectivity ratio VAChT/ σ1” value is on record as 7.0. Further, the “Selectivity ratio VAChT/ σ2” value at σ2 receptor [4] is given as greater than 420.
In the case of `CSc1ccc(C(=O)C2CCN(C3Cc4ccccc4CC3O)CC2)cc1` (racemic) [(±)-8, (±)-(1-(3-Hydroxy-1,2,3,4-tetrahydronaphthalen-2-yl)piperidin-4-yl)(4-(methylthio)phenyl)methanone], on σ1 receptor [3], the “Selectivity ratio VAChT/ σ1” value is given as 7.2 and the Ki was 17.2 ± 4 nM. For the same molecule, on σ2 receptor [4], the “Selectivity ratio VAChT/ σ2” value is recorded as greater than 420 and the Ki was greater than 1000 nM.
For `CS(=O)(=O)c1ccc(C(=O)C2CCN(C3Cc4ccccc4CC3O)CC2)cc1` (racemic) [(±)-7, (±)-(1-(3-Hydroxy-1,2,3,4-tetrahydronaphthalen-2-yl)piperidin-4-yl)(4-(methyl-sulfonyl)phenyl)methanone] the same measures were 3.1, 16.5 ± 2.1 nM, greater than 185 and greater than 1000 nM.
